The experiment deals with male Wistar rats. The experiment can be described thus: one-trial passive avoidance test: improvement of experimental retrograde amnesia by cycloheximide. In kind it is in vivo, rat. The settings on record: given 1 h before electro-shock (0.5 mA), cycloheximide 2.7 to 3.0 mg/kg s.c., retention tested at 48 hours, control = cycloheximide alone. How it is done:
221, pp. […], 1983. […] At 48 hours after the administration was made, memory retention of the rats were tested.

Non-standard residues stand in square brackets, D forms with d. Residues, ends and D or L forms follow the SMILES beside them. *: point of attachment. Cys(free,S-linked) = N[C@@H](CS*)C(=O)O; pGlu = O=C1CC[C@@H](C(=O)O)N1; Aze = O=C(O)[C@@H]1CCN1

Regarding `N=C(N)NCCC[C@H](NC(=O)[C@@H]1CCN1C(=O)[C@H](CSSC[C@H](N)C(=O)O)NC(=O)[C@H](CC(N)=O)NC(=O)[C@@H]1CCC(=O)N1)C(=O)NCC(N)=O` [Example 6] ([pGlu]NC(Cys(free,S-linked))[Aze]RG-NH2), the “Effect (%): ratio of response latent period of each group to that of the control groups” value (from here on “Effect (%): ratio”) (dose 1 ng/kg) was 239%.

Regarding `C[C@H](NC(=O)[C@@H](N)CC(N)=O)C(=O)N1CCC[C@H]1C(=O)N[C@@H](CCCNC(=N)N)C(=O)O` [Example 9, H-Asn-Ala-Pro-Arg-OH acetate] (H-NAPR-OH), the “Effect (%): ratio” value (dose 1 ng/kg) is 460%.

In the case of `N=C(N)NCCC[C@H](NC(=O)[C@@H]1CCCCN1C(=O)[C@H](CO)NC(=O)[C@@H](N)CC(N)=O)C(=O)O` [Example 12, H-Asn Ser-Pip-Arg-OH acetate] (HELM PEPTIDE1{N.S.[O=C([C@@H]1CCCCN1[*:1])[*:2]].R}$$$$V2.0), the “Effect (%): ratio” value (dose 1 ng/kg) was 235%.

For `N=C(N)NCCC[C@H](NC(=O)[C@@H]1CCCN1C(=O)[C@H](CSSC[C@H](N)C(=O)O)NC(=O)[C@@H]1CCCN1)C(=O)NCC(N)=O` [Example 17] (H-PC(Cys(free,S-linked))PRG-NH2), for the setting “dose 1 ng/kg”, the “Effect (%): ratio” value came to 365%.

Regarding `N=C(N)NCCC[C@H](NC(=O)[C@@H]1CCCN1C(=O)[C@H](CO)NC(=O)[C@H](CC(N)=O)NC(=O)[C@@H]1CCC(=O)N1)C(=O)NCC(N)=O` [Example 21, pGlu-Asn-Ser-Pro-Arg-Gly-NH2 acetate] (HELM PEPTIDE1{[Glp].N.S.P.R.G.[am]}$$$$V2.0), the “Effect (%): ratio” value (dose 0.1 ng/kg) is reported as 353%.

For `N=C(N)NCCC[C@H](NC(=O)[C@@H]1CCCN1C(=O)[C@H](CO)NC(=O)[C@@H]1CCCN1)C(=O)O` [Example 27, H-Pro-Ser-Pro-Arg-OH acetate] (H-PSPR-OH), for the setting “dose 0.1 ng/kg”, the “Effect (%): ratio” value is 213%.

These data come from patent US5112947A, “Peptides, and antidementia agents containing the same” (Nippon Chemiphar Co., Ltd., priority 1989, dated 1992).
